The source of these data is patent publication US9259482B2, “Conjugates of polymers having a therapeutically active agent and an angiogenesis targeting moiety attached thereto and uses thereof in the treatment of angiogenesis related diseases” (Ramot at Tel-Aviv University Ltd., priority 2008, dated 2016).

In test [1] the test system is U87 human glioblastoma cells. The experiment in a line: Cell proliferation assay, U87. Type of test: cell-based. As to conditions: U87, 72 hours; bis-cyclic RGD compounds (X = 2); NA = did not reach IC50 in the concentrations used; 'a -- b' = bell-shaped curve; read-out: IC50 (nM) of PGA- PTX-E-[c(RGDfk)2] (SEQ ID NO: 18) 5 mol % PTX, 3.9 mol % RGD. How it is done:
(§1) The anti-angiogenesis and anti-proliferative activity of the conjugates described herein was evaluated by the effect of the conjugates on the proliferation of HUVEC, U87 and PANC02 cells.
(§2) HUVEC were plated onto 24-well plate (1×10^4 cells/well) in endothelial cell basal medium 2 (EBM-2; Cambrex, USA) supplemented with 5% fetal bovine serum (FBS). Following 24 hours of incubation (37° C.; 5% CO2) medium was replaced with Endothelial cell growth medium-2 (EGM-2; Cambrex, USA). U87 and PANC02 cells were plated onto 96 well plate (2×10^3 cells/well) in DMEM supplemented with 5% FBS and incubated for 24 hours (37° C.; 5% CO2). Following 24 hours of incubation the medium was replaced with DMEM containing 10% FBS. Cells were challenged with the tested compounds at serial concentrations for 72 hours. After incubation the number of HUVEC were counted by Coulter Counter and U87, and PANC02 cells were counted by XTT respectively.

Test [2] deals with PANC02 murine pancreatic tumor cells. The experiment in a line: Cell proliferation assay, PANC02. Type of test: cell-based. As to the method:
as §1, §2

Test [3] concerns HUVEC. Nature of the test: Endothelial cell adhesion assay on fibrinogen coated plates. Type of test: cell-based, human. As to conditions: for inhibition of HUVEC adhesion to fibrinogen: with a similar amount of PTX; for effect of free peptides on HUVEC adhesion: free peptide at 50 μM. How it is done: The ability of E-[c(RGDfk)2] and E-c(RGDfk) moieties (SEQ ID NOs: 2 and 41) in the conjugates to inhibit endothelial attachment to cellular matrix after conjugation, was assessed using an adhesion assay. Flat bottom 96-well culture plates (Nunc, Denmark) were coated with 0.5 μg/well fibrinogen overnight at 4° C. After washing three times with Phosphate buffered saline (PBS), the wells were blocked with 1% bovine serum albumin (BSA) for 1 hour at 37° C. and washed three times again with PBS. HUVEC were harvested in phosphate-buffered saline (137 mM NaCl, 2.7 mM KCl, 4.3 mM Na2HPO4, 1.4 mM KH2PO4, pH 7.3) with 2.5 mM EDTA and resuspended in EBM-2 serum-free media (Clonetics). HUVEC were incubated for 30 minutes, at room temperature, with the tested compounds. The treated HUVEC were plated at 5×10^4 cells per well and were allowed to attach for 1 hour at 37° C. After incubation, the unattached cells were removed by rinsing the wells with PBS. The attached cells were fixed with 3.7% formaldehyde, stained with 0.5% crystal violet and were imaged using Nikon TE2000E inverted microscope integrated with Nikon DS5 cooled CCD camera by 4× objective, brightfield technique. The number of attached cells was quantified with NIH ImageJ processing and analysis software. Non-specific binding was determined by adhesion of HUVEC cells, which were not incubated with any of the tested compounds, to BSA-coated plates.

The test system of test [4] is HUVEC. Nature of the test: Capillary-like tube formation assay. Type of test: cell-based, human. As to conditions: equivalent concentrations of 10 nM (PTX) and 19 nM (E-[c(RGDfk)2]); conjugate with 5 mol % E-[c(RGDfk)2], 2.6 mol % PTX; FIG. 16B. As to the method: The anti-angiogenesis activity of the conjugates was evaluated by the effect of the conjugates on the ability of HUVEC cells to form capillary-like tube structures.
The surface of 24-well plates was coated with Matrigel matrix (50 μl/well) (BD Biosciences, USA) on ice and was then allowed to polymerize at 37° C. for 30 minutes. HUVEC (3×10^4 cells) were challenged with the tested compounds, and were seeded on coated plates in the presence of complete EGM-2 medium. After 8 hours of incubation (37° C.; 5% CO2), wells were imaged using Nikon TE2000E inverted microscope integrated with Nikon DS5 cooled CCD camera by 4× objective, brightfield technique. During the tube formation assay endothelial cells directionally migrate to align, branch and form polygonal networks (i.e. tube like structures). The extent of capillary-like tube structures is inversely proportional to the anti-angiogenesis activity of the compounds.

Test [5] concerns HUVEC. Nature of the test: cells. Type of test: cell-based, human. As to conditions: for effect on HUVEC proliferation: FIG. 12A; for IC50: HUVEC, 72 hours, NA = did not reach IC50 in the concentrations used, 'a -- b' = bell-shaped curve. As to the method: as §1, §2
Test [6] relates to HUVEC. The experiment in a line: Migration assay of HUVEC towards VEGF. Type of test: cell-based, human. The conditions noted are these: equivalent concentrations of 100 nM PTX; conjugate with 5 mol % E-[c(RGDfk)2], 2.6 mol % PTX; FIG. 14. As to the method:
The anti-angiogenesis activity of the conjugates was evaluated by examining the effect of the conjugates on the ability of HUVEC to migrate toward the Vascular Endothelial Growth Factor (VEGF).
Cell migration assay was performed using modified 8 μm Boyden chambers Transwells® (Costar Inc., USA) coated with 10 μg/ml fibronectin HUVEC (15×10^4 cells/100 μl) were challenged with the tested compounds that were added to the upper chamber of the transwells for 2 hours. Following incubation, cells were allowed to migrate to the underside of the chamber for 4 hours in the presence or absence of VEGF (20 ng/ml) in the lower chamber. Cells were then fixed and stained (Hema 3 Stain System; Fisher Diagnostics, USA). The stained migrated cells were imaged using Nikon TE2000E inverted microscope integrated with Nikon DS5 cooled CCD camera by 10× objective, brightfield illumination. Migrated cells from the captured images per membrane were counted using NIH image software. Migration was normalized to the percent of migration toward VEGF of HUVEC which were not incubated with any compound. The extent of migration is inversely proportional to the anti-angiogenesis activity of the compounds.

The target of another test is T1, αvβ3 integrin receptor (Homo sapiens, UniProt P05106+P06756).
T1 construct: endogenous in cells; host or cells: HUVEC
T1 sequence (P06756 31-889 limits assumed): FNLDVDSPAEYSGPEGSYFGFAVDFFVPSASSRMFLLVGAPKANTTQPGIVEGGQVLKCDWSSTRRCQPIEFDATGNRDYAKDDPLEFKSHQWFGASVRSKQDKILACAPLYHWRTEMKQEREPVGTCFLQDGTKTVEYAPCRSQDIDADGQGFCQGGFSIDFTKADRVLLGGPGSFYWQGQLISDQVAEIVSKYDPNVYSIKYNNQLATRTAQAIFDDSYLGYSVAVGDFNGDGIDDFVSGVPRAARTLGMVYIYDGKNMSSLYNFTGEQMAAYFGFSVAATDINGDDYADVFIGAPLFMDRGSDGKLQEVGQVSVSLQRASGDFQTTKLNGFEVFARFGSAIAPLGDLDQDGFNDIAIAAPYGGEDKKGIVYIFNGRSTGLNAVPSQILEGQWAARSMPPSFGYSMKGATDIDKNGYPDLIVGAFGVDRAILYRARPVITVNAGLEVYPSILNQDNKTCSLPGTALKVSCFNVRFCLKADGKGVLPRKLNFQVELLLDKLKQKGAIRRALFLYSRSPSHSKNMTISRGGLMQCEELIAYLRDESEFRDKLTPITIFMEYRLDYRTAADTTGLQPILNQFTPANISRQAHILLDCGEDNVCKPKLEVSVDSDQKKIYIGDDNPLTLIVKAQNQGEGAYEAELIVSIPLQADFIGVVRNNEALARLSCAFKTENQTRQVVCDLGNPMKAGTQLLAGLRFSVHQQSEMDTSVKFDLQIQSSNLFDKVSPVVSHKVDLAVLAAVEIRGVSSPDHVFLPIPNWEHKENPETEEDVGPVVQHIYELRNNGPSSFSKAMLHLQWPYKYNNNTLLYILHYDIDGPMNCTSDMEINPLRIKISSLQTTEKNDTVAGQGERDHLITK
T1 sequence (P06756 891-1048 limits assumed): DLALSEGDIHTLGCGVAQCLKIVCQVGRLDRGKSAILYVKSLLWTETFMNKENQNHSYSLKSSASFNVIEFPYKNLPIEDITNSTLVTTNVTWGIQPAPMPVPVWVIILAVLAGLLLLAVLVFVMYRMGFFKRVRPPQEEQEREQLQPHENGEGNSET
T1 sequence (P05106 27-788): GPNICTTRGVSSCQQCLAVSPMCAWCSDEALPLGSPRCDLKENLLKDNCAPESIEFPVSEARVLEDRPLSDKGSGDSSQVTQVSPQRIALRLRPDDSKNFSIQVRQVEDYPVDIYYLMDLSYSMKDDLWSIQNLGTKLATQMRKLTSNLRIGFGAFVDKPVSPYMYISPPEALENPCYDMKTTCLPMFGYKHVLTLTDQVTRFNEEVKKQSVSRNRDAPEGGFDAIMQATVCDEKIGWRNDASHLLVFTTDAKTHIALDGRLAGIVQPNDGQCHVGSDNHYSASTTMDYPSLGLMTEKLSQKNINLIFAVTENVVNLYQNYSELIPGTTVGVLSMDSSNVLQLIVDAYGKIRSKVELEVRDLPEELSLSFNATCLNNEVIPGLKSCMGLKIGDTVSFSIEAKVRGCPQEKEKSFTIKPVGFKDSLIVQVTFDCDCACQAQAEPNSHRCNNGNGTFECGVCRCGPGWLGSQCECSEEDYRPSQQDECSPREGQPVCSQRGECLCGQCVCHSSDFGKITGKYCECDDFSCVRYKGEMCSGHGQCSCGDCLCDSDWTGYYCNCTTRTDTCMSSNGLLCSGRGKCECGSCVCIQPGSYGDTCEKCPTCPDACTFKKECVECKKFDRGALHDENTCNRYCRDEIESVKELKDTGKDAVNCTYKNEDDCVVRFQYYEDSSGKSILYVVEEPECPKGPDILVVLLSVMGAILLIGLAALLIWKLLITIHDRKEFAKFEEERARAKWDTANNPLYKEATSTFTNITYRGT
Nature of the test: αvβ3 interaction with fluorescently labeled conjugates in HUVEC. Type of test: cell-based. How it is done:
A fluorescence probe, Oregon Green-cadaverine (OG), was conjugated to PGA conjugates through the free carboxylic groups (see Example 5 for synthesis description), in order to study the cellular uptake and trafficking.
HUVEC were plated onto 6 mm plates (5×10^5 cells/plate) in EBM-2 (Cambrex, USA) supplemented with 5% FBS. Following 24 hours of incubation (37° C.; 5% CO2), cells were challenged with either PGA-OG, PGA-c(RADfk)-OG (SEQ ID NO: 24) or PGA-E-[c(RGDfk)2]-OG (SEQ ID NO:25) diluted in EGM-2 medium for 5, 10, 15, 30 or 60 minutes. Cells were then washed in PBS (×3), harvested with PBS containing 2.5 mM EDTA and analyzed with the ImageStream 100 imaging flow cytometer (Amnis). Analysis was performed using IDEAS software.

Where two headings read alike, the source gives them in different places. Non-standard residues stand in square brackets, D forms with d.

For the molecule “PGA-PTX-c(RADfk) (cyclo(RAD[dF]K); not fully specified (residue 5); also: polyglutamic acid polymer conjugate, paclitaxel conjugate)”, the IC50 in test [1] is 65 nM; in test [2] (PANC02, 72 hours, bis-cyclic RGD compounds (X = 2), NA = did not reach IC50 in the concentrations used, read-out: IC50 (nM) of PGA- PTX-E-[c(RGDfk)2] (SEQ ID NO: 18) 5 mol % PTX, 3.9 mol % RGD), 2600 nM; in test [2] (nM PTX, equivalent doses, FIG. 12C, read-out: IC50 of PANC02 proliferation), around 2000 nM. Moreover, the “inhibition of HUVEC adhesion to fibrinogen” value in the test with HUVEC [3] (control compared to bis-cyclic RGD-bearing conjugates) was around 20%; in the test on HUVEC [3] (control compared to monocyclic RGD-bearing conjugate), around 50%. For the same molecule, the “inhibition of the formation of tubular structures of HUVEC” value in the test on HUVEC [4] was “about 40%”.

As for `N=C(N)NCCC[C@@H]1NC(=O)[C@H](CCCCNC(=O)CC[C@H](N)C(=O)NCCCC[C@@H]2NC(=O)[C@@H](Cc3ccccc3)NC(=O)[C@H](CC(=O)O)NC(=O)CNC(=O)[C@H](CCCNC(=N)N)NC2=O)NC(=O)[C@@H](Cc2ccccc2)NC(=O)[C@H](CC(=O)O)NC(=O)CNC1=O` [E-[c(RGDfk)2]], the “effect on HUVEC proliferation” value in the test on HUVEC [5] is given as “only at high concentrations”. Moreover, the “inhibition of the migration of HUVEC towards VEGF” value with HUVEC [6] is listed as “about 30%”. Further, the “effect of free peptides on HUVEC adhesion” value (“effect of free peptides” for short) with HUVEC [3] is on record as “completely abrogated HUVEC adhesion”.

For “PGA-c(RADfk) (cyclo(RAD[dF]K); not fully specified (residue 5); also: polyglutamic acid polymer conjugate)”, the IC50 in the test with HUVEC [5] (bis-cyclic RGD compounds (X = 2), read-out: IC50 (nM) of PGA- PTX-E-[c(RGDfk)2] (SEQ ID NO: 18) 2.6 mol % PTX, 5 mol % RGD) was 5000 nM; in the test on HUVEC [5] (experiment with monocyclic RGD compounds (X = 1), read-out: IC50 (nM) of PGA- PTX-E-c(RGDfk) (SEQ ID NO: 16) 2.1 mol % PTX, 5 mol % RGD) it was 1000 nM.

As for “PGA-c(RADfk)-OG (cyclo(RAD[dF]K); not fully specified (residue 5); also: polyglutamic acid polymer conjugate, Oregon Green label)”, the “time at which conjugate-cell adherence was first observed” value with αvβ3 integrin receptor (ImageStream 100 imaging flow cytometer) is 15 min. Besides, the “extent of binding / uptake by HUVEC” value with αvβ3 integrin receptor (OG fluorescence, FIGS. 11B, 11C) is “bound to a much lesser extent”.

Take c[Arg-Gly-Asp-Phe-Lys] [E-c(RGDfk)]: the “effect of free peptides” value with HUVEC [3] is listed as “completely abrogated HUVEC adhesion”.

Regarding “c(RADfk): inactive cyclic peptide RAD, negative control (SEQ ID NO:40) (cyclo(RAD[dF]K); not fully specified (residue 5))”, in the test with HUVEC [5], the “effect on HUVEC proliferation” value is “no effect even at those high concentrations”. The “inhibition of the migration of HUVEC towards VEGF” value with HUVEC [6] is “about 30%”. For the same molecule, the “effect of free peptides” value in the test on HUVEC [3] is recorded as “no effect”.
